From ChEMBL document CHEMBL6087414, “Discovery of 4-(4-(3-(1-(2-(piperidin-1-yl)ethyl)-1H-benzo[d]imidazole-2-yl)isoxazol-5-yl)phenyl)morpholine as a novel c-Myc inhibitor against lung cancer in vitro and in vivo” (Eur J Med Chem, 2025)

What was measured:
[1] = test system: A549; assay: Cytotoxicity against human A549 cells assessed as inhibition of cell viability incubated for 48 hrs by CCK8 assay; type: functional, cell-based; details: A549, 48 h
[2] = test system: NCI-H1299; assay: Cytotoxicity against human NCI-H1299 cells assessed as inhibition of cell viability incubated for 48 hrs by CCK8 assay; type: functional, cell-based; details: NCI-H1299, 48 h

SMILES	IC50 [1]	IC50 [2]
c1ccc2c(c1)nc(-c1cc(-c3ccc(N4CCCC4)cc3)on1)n2CCCN1CCOCC1	29.5 µM	36.2 µM
CN(C)CCCn1c(-c2cc(-c3ccc(N4CCCCCC4)cc3)on2)nc2ccccc21	8.19 µM	12.9 µM
Fc1ccc(-c2cc(-c3nc4ccccc4n3Cc3ccccc3)no2)cc1	> 40 µM	> 40 µM
Cc1ccc(C(=O)n2c(-c3cc(-c4ccc(N5CCOCC5)cc4)on3)nc3ccccc32)cc1	19.2 µM	22.2 µM
c1ccc2c(c1)nc(-c1cc(-c3ccc(N4CCCCCC4)cc3)on1)n2CCN1CCCCCC1	14.8 µM	26.4 µM
c1ccc2c(c1)nc(-c1cc(-c3ccc(N4CCCC4)cc3)on1)n2CCN1CCOCC1	19.9 µM	36 µM
Cc1ccc(C(=O)n2c(-c3cc(-c4ccc(F)cc4)on3)nc3ccccc32)cc1	> 40 µM	30.1 µM
Cc1cc(C)cc(OCCn2c(C3CC(=O)N(c4cccc(C)c4)C3)nc3ccccc32)c1 (centres undefined)	15.3 µM	18.8 µM
c1ccc2c(c1)nc(-c1cc(-c3ccc(N4CCCCC4)cc3)on1)n2CCCN1CCCCC1	13.6 µM	29.1 µM
c1ccc2c(c1)nc(-c1cc(-c3ccc(N4CCCCC4)cc3)on1)n2CCN1CCCCCC1	9.38 µM	16.7 µM
CCN(CC)CCCn1c(-c2cc(-c3ccc(N4CCCCCC4)cc3)on2)nc2ccccc21	12.2 µM	14.3 µM
CN(C)c1ccc(-c2cc(-c3nc4ccccc4n3CCN3CCCC3)no2)cc1	10.7 µM	14.2 µM
c1ccc2c(c1)nc(-c1cc(-c3ccc(N4CCCCCC4)cc3)on1)n2CCN1CCCC1	10.5 µM	24.6 µM
CN(C)c1ccc(-c2cc(-c3nc4ccccc4n3CCCN3CCCCC3)no2)cc1	11.6 µM	16.9 µM
CCN(CC)CCCn1c(-c2cc(-c3ccc(N(C)C)cc3)on2)nc2ccccc21	8.78 µM	19.7 µM
c1ccc2c(c1)nc(-c1cc(-c3ccc(N4CCOCC4)cc3)on1)n2CCCN1CCCCC1	6.25 µM	20.2 µM
CN(C)CCCn1c(-c2cc(-c3ccc(N4CCCCC4)cc3)on2)nc2ccccc21	6.04 µM	15.4 µM
CCN(CC)CCCn1c(-c2cc(-c3ccc(N4CCCCC4)cc3)on2)nc2ccccc21	7.41 µM	18 µM
c1ccc2c(c1)nc(-c1cc(-c3ccc(N4CCOCC4)cc3)on1)n2CCCN1CCOCC1	13.6 µM	23.2 µM
c1ccc2c(c1)nc(-c1cc(-c3ccc(N4CCCC4)cc3)on1)n2CCN1CCCC1	20.8 µM	38 µM
CN(C)CCCn1c(-c2cc(-c3ccc(N4CCOCC4)cc3)on2)nc2ccccc21	10.1 µM	22.3 µM
c1ccc2c(c1)nc(-c1cc(-c3ccc(N4CCCCCC4)cc3)on1)n2CCN1CCCCC1	10.9 µM	21.8 µM
